Where a name gives a salt, the structure may show the parent alone. Read-outs that look alike come from different tables or passages of the source.
Tests used:
[1] = metabolites of proguanil ref 32; cited from earlier work
[2] = molecular target: hDHFR (Homo sapiens, UniProt P00374); assay type: biochemical; conditions: Lineweaver-Burk plot at 3, 6 and 12 µM; substrate DHF
[3] = test system: HeLa cells
[4] = molecular target: wild type A/M2 proton channel (Influenza A virus, UniProt P0DOF5); assay type: biochemical; conditions: 100 μM; TEVC, Xenopus oocytes; data not shown
Chain of wild type A/M2 proton channel (P0DOF5 whole entry, looked up): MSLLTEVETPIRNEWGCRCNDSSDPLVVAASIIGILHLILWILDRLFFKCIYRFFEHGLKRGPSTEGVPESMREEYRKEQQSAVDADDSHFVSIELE

[5] = test system: Vero cells
[6] = test system: human airway epithelial Calu-3 cells; conditions: data not shown
[7] = test system: HeLa cells; remark: listed apart in the source
[8] = test system: Punta Toro virus; assay: microbe, parasite or virus in culture; assay type: cell-based; conditions: Vero, read-out: Antiviral activity: EC50, Punta Toro virus
[9] = test system: Reovirus-1; assay: organism not typed; assay type: cell-based; conditions: Vero, read-out: Antiviral activity: EC50, Reovirus-1
[10] = test system: Para-influenza-3 virus; assay: organism not typed; assay type: cell-based; conditions: Vero, read-out: Antiviral activity: EC50, Para-influenza-3 virus

Chain of hDHFR (P00374 whole entry): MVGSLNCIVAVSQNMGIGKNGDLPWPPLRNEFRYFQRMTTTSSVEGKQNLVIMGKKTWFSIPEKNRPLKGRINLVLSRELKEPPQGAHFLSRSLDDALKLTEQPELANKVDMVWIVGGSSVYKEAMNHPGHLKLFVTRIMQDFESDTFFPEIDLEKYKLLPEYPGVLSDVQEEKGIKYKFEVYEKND

SMILES | Cytotoxicity: MCC ([3]; HeLa cells, microscopy) [µM] | Cytotoxicity: MCC ([5]; Vero cells, microscopy) [µM] | other results
N=C(N)NC(=N)Nc1ccc(Cl)cc1 [1-(4-chlorophenyl)biguanide] |  |  | Share of the total drug concentration in plasma [1]: ~23%
CC1(C)N=C(N)N=C(N)N1c1ccc(Cl)cc1 [Compound 1, cycloguanil, reference compound] | >100 | >100 | Inhibition pattern towards the substrate [2]: competitive inhibition pattern; Share of the total drug concentration in plasma [1]: about 30%; Inhibition of wild type M2 channel [4]: neither of the three compounds significantly inhibited; Cytotoxicity MCC [6]: > 100 µM
CC1(C)N=C(N)N=C(N)N1c1ccccc1 [Compound 2] | >100 | >100 | 
Cc1ccc(N2C(N)=NC(N)=NC2(C)C)cc1 [Compound 3] | >100 | >100 | 
COc1ccc(N2C(N)=NC(N)=NC2(C)C)cc1 [Compound 4] | >100 | >100 | 
CC1(C)N=C(N)N=C(N)N1c1ccc(F)cc1 [Compound 5] | >100 | >100 | 
CC1(C)N=C(N)N=C(N)N1c1ccc(Br)cc1 [Compound 6] | >100 | >100 | 
CC1(C)N=C(N)N=C(N)N1c1ccc([N+](=O)[O-])cc1 [Compound 7] | >100 | >100 | 
CC1(C)N=C(N)N=C(N)N1c1ccc(C(=O)O)cc1 [Compound 8] | >100 | >100 | 
CCOC(=O)c1ccc(N2C(N)=NC(N)=NC2(C)C)cc1 [Compound 9] | >100 | >100 | 
CC1(C)N=C(N)N=C(N)N1c1ccccc1Cl [Compound 10] | >100 | >100 | 
CC1(C)N=C(N)N=C(N)N1c1cccc(Cl)c1 [Compound 11] | >100 |  | Cytotoxicity MCC [6]: > 100 µM
CC1(C)N=C(N)N=C(N)N1c1cccc(F)c1 [Compound 12, 4,6-Diamino-2,2-dimethyl-1-(3-fluorophenyl)-1,2-dihydrotriazine hydrochloride] |  |  | Cytotoxicity: MCC ([3]; human): ≥100 µM
CC1(C)N=C(N)N=C(N)N1c1cccc(Br)c1 [Compound 13] | ≥100 | >100 | Cytotoxicity MCC [6]: > 100 µM
CC1(C)N=C(N)N=C(N)N1c1cccc(C(F)(F)F)c1 [Compound 14] | ≥100 |  | Inhibition of wild type M2 channel [4]: neither of the three compounds significantly inhibited; Cytotoxicity MCC [6]: > 100 µM; Cytotoxicity MCC ([7]; dihydrofolic acid 1.0 μM): 20 µM; Cytotoxicity MCC ([7]; dihydrofolic acid 2.6 μM): 20 µM; Cytotoxicity MCC ([7]; dihydrofolic acid 16 μM): 20 µM; Cytotoxicity MCC ([7]; dihydrofolic acid 40 μM): 20 µM; Cytotoxicity MCC ([7]; dihydrofolic acid 400 μM): 20 µM; Cytotoxicity MCC ([7]; human): 20 µM; Cytotoxicity MCC ([7]; independent of whether dihydrofolic acid was present or not): 20 µM
CC1(C)N=C(N)N=C(N)N1c1ccc(Cl)cc1Cl [Compound 15] | >100 | >100 | 

SMILES | Cytotoxicity: MCC ([3]; HeLa cells, microscopy) [µM] | Cytotoxicity: MCC ([5]; Vero cells, microscopy) [µM] | other results
CC1(C)N=C(N)N=C(N)N1c1ccc(Cl)c(Cl)c1 [Compound 16] | >100 |  | Inhibition of wild type M2 channel [4]: neither of the three compounds significantly inhibited; Cytotoxicity MCC [6]: > 100 µM
CC1(C)N=C(N)N=C(N)N1c1cc(C(F)(F)F)cc(C(F)(F)F)c1 [Compound 17, 4,6-Diamino-2,2-dimethyl-1-(3,5-ditrifluoromethylphenyl)-1,2-dihydrotriazine hydrochloride] |  |  | Cytotoxicity: MCC ([3]; human): ≥100 µM; Cytotoxicity: MCC ([5]; African green monkey): >100 µM
CCC1(C)N=C(N)N=C(N)N1c1ccc(Cl)cc1 (stereo not drawn) [Compound 18] | >100 | >100 | 
CC(C)C1(C)N=C(N)N=C(N)N1c1ccc(Cl)cc1 (stereo not drawn) [Compound 19] | >100 | >100 | 
NC1=NC2(CCCC2)N(c2ccc(Cl)cc2)C(N)=N1 [Compound 20] | >100 | >100 | 
NC1=NC2(CCCC2)N(c2cccc(Cl)c2)C(N)=N1 [Compound 21, 1-(3-Chlorophenyl)-2,2-cyclotetramethylene-4,6-diamino-1,2-dihydrotriazine hydrochloride] | ≥100 | >100 | 
NC1=NC2(CCCC2)N(c2cccc(C(F)(F)F)c2)C(N)=N1 [Compound 22, 2,2-Cyclotetramethylene-4,6-diamino-1-(3-trifluoromethylphenyl)-1,2-dihydrotriazine hydrochloride] | ≥100 | >100 | 
NC1=NC2(CCCCC2)N(c2cccc(Cl)c2)C(N)=N1 [Compound 24] | ≥100 | >100 | 
NC1=NC2(CCCCC2)N(c2cccc(C(F)(F)F)c2)C(N)=N1 [Compound 25, 2,2-Cyclopentamethylene-4,6-diamino-1-(3-trifluoromethylphenyl)-1,2-dihydrotriazine hydrochloride] | ≥100 | >100 | Cytotoxicity MCC [6]: > 100 µM
CCCC1N=C(N)N=C(N)N1c1ccc(Cl)cc1 (stereo not drawn) [Compound 27] | >100 | >100 | 
NC1=NC(c2ccccc2)N(c2ccc(Cl)cc2)C(N)=N1 (stereo not drawn) [Compound 28] |  | >100 | 
CC1(C)N=C(N)N=C(Nc2ccc(Cl)cc2)N1 [Compound 29] | >100 | >100 | 
[H]/N=C(\N/C(=N/[H])Nc1ccc(Cl)cc1)NC(C)C [Compound 30, proguanil, reference compound] | >100 | 20 | 
CCc1nc(N)nc(N)c1-c1ccc(Cl)cc1 [Compound 32, pyrimethamine, reference compound] | ≥100 |  | Cytotoxicity MCC [6]: > 100 µM
COc1c(C)c2c(c(O)c1C/C=C(\C)CCC(=O)O)C(=O)OC2 [Mycophenolic acid] |  |  | EC50 [8]: 20 µM; EC50 [9]: 1.8 µM
NC(=O)c1ncn([C@@H]2O[C@H](CO)[C@@H](O)[C@H]2O)n1 [Ribavirin] |  |  | EC50 [10]: 112 µM

From article PMC7115580 (European Journal of Medicinal Chemistry, 2017)
